Patent US20110293757A1, “Compositions Comprising Tea Tree Oil and Methods for the Prevention and Treatment of Cancer” (priority 2008, published 2011)

Experiments:
AE17 mesothelioma = assay: Topical treatment of subcutaneous murine AE17 mesothelioma tumours, tumour area by micro-callipers; format: in vivo, C57BL/6J mice; settings: 50 ul topically; 4% terpinen-4-ol, 2% γ-terpinene, 1% α-terpinene, 0.5% 1,8-cineole, 0.5% p-cymene; vs untreated controls
From the text: The models used, murine AE17 mesothelioma and murine B16 melanoma tumour, both involve the implantation of tumour cell lines subcutaneously onto the rear flank of fully immuno-competent mice. Palpable tumours arise within 3-14 days.
Female fully immuno-competent C57BL/6J mice between 6-8 weeks of ages are obtained from the Animal Resources Centre (Perth, Australia) and maintained under SPF (specified pathogen free) housing conditions (Animal Care Unit, University of Western Australia).
AE17 cells were derived from the peritoneal cavity of C57BL/6J mice injected with asbestos fibres (Jackaman, 2003) and (Davis, 1992) and are injected subcutaneously at a concentration of 1×10^7 per mouse (Needham, 2006). […]

[1] = tested on: B16 melanoma, UV induced squamous carcinoma and Lewis lung carcinoma; settings: 18 μg, 3 topical treatments (Ogbourne, 2004); cited from earlier work
skin = settings: cited from earlier work

CC12CCC(CC1)C(C)(C)O2 [1,8-cineole]
AE17 tumour growth, components applied singly with DMSO (AE17 mesothelioma): lack of efficacy

C/C=C(/C)C(=O)O[C@H]1C(C)=C[C@]23C(=O)[C@@H](C=C(CO)[C@@H](O)[C@]12O)[C@H]1[C@@H](C[C@H]3C)C1(C)C [3-Ingenyl-Angelate]
tumour regression [1]: induces tumour regression with just 3 topical treatments
skin reaction on topical application (skin): elicits skin irritation

CC(C)Cn1cnc2c(N)nc3ccccc3c21 [Imiquimod]
skin reaction on topical application (skin): redness, drying and scabbing

Cc1ccc(C(C)C)cc1 [p-cymene]
AE17 tumour growth, components applied singly with DMSO (AE17 mesothelioma): lack of efficacy

CC1=CCC(O)(C(C)C)CC1 (centres unmarked) [terpinen-4-ol]
AE17 tumour growth, components applied singly with DMSO (AE17 mesothelioma): lack of efficacy

CC1=CC=C(C(C)C)CC1 [α-terpinene]
AE17 tumour growth, components applied singly with DMSO (AE17 mesothelioma): lack of efficacy

CC1=CCC(C(C)C)=CC1 [γ-terpinene]
AE17 tumour growth, components applied singly with DMSO (AE17 mesothelioma): lack of efficacy
